“And” between values parts separate entries of the source, which are not always exact repeats. Identical values can stand only once. Like-named read-outs stand apart in the source and are kept apart here.
Experiments:
[1] = system: A431 cells; test: Inhibition of cell growth, A431 cells; conditions: for fold increased IC50 in presence of folic acid, A431: IC50 + 1 μM FA vs without FA
[2] = target: T1, thymidylate synthase (TS) from L1210 mouse leukaemia cells (Mus musculus, UniProt P07607); test: Inhibition of isolated L1210 thymidylate synthase; type: biochemical; conditions: read-out: Inhibition of isolated L1210 TS, Kiapp
T1 construct: obtained in partially purified form from L1210 mouse leukaemia cells; endogenous in cells; host or cells: L1210 mouse leukaemia cells (enzyme partially purified)
T1 sequence (P07607 whole entry): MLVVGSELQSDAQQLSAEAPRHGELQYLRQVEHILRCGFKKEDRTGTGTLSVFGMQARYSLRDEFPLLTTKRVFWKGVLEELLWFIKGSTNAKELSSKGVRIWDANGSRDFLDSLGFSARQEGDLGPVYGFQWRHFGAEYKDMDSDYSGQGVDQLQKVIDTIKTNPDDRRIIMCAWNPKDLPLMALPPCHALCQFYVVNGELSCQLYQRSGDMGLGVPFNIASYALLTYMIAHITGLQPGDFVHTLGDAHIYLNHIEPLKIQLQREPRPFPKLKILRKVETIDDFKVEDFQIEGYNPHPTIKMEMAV

[3] = system: KB cells; test: Inhibition of cell growth, KB cells; conditions: for fold increased IC50 in presence of folic acid, KB: IC50 + 1 μM FA vs without FA;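 as to all read-outs here: KB nasopharyngeal carcinoma cells express the α-folate receptor, and leucovorin at 20 nM was the folate source in the growth medium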
[4] = target: T2, α-FR (Mus musculus, UniProt P35846); test: Binding to α-FR relative to folic acid, L1210-FBP cells; conditions: L1210-FBP mouse tumor cells overexpressing α-FR; folic acid = 1
T2 construct: endogenous in cells; host or cells: mouse L1210-FBP cells
T2 sequence (P35846 25-232): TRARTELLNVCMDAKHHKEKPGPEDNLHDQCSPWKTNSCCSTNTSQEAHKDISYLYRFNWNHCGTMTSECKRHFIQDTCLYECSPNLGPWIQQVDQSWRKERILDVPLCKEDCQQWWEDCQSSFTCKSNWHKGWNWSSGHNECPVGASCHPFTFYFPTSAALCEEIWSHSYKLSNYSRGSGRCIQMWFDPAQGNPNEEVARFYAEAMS

[5] = system: A431-FBP cells; test: Inhibition of cell growth, A431-FBP cells; conditions: for fold increased sensitivity compared with A431, A431-FBP: A431 IC50 vs A431-FBP IC50; for fold increased IC50 in presence of folic acid, A431-FBP: IC50 + 1 μM FA vs without FA
[6] = target: T3, reduced-folate carrier (RFC) (Homo sapiens, UniProt P41440); test: Inhibition of 3H MTX uptake in W1L2 cells; type: cell-based; conditions: Inhibition of 3H MTX uptake Ki, W1L2, human lymphoblastoid W1L2 cells; high Ki = low affinity for RFC
T3 construct: endogenous in cells; host or cells: W1L2
T3 sequence (P41440 1-591): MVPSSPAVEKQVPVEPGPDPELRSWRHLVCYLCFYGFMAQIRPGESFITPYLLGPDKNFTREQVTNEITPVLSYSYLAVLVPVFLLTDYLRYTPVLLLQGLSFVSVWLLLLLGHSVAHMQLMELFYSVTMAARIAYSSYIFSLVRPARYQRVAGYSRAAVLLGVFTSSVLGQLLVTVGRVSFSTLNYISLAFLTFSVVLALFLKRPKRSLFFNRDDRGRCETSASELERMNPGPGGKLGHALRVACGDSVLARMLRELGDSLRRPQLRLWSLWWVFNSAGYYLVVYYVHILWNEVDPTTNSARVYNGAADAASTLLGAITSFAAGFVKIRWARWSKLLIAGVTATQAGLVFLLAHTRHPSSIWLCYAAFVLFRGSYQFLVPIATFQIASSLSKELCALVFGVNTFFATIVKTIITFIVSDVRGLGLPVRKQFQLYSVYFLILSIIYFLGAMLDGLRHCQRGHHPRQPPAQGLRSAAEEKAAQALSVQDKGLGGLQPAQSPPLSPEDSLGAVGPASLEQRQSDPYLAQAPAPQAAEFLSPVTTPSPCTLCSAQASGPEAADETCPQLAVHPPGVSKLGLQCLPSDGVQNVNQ

[7] = target: T4, α-FR (Homo sapiens, UniProt P15328); test: Binding to α-FR relative to folic acid, A431-FBP cells; conditions: human A431 cells transfected with α-FR; folic acid = 1
T4 construct: expressed in transfected cells; host or cells: A431 (human vulvar carcinoma)
T4 sequence (P15328 25-234): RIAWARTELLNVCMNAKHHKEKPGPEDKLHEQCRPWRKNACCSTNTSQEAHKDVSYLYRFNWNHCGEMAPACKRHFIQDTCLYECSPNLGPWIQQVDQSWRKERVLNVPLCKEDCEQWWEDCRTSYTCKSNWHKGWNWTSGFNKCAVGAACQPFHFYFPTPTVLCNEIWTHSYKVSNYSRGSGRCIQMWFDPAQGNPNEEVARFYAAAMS

[8] = target: T5, reduced-folate carrier (RFC) (Mus musculus, UniProt P41438); test: Inhibition of 3H MTX uptake in L1210 cells; type: cell-based; conditions: Inhibition of 3H MTX uptake Ki, L1210, mouse L1210 tumor cells; high Ki = low affinity for RFC
T5 construct: endogenous in cells; host or cells: L1210
T5 sequence (P41438 1-512): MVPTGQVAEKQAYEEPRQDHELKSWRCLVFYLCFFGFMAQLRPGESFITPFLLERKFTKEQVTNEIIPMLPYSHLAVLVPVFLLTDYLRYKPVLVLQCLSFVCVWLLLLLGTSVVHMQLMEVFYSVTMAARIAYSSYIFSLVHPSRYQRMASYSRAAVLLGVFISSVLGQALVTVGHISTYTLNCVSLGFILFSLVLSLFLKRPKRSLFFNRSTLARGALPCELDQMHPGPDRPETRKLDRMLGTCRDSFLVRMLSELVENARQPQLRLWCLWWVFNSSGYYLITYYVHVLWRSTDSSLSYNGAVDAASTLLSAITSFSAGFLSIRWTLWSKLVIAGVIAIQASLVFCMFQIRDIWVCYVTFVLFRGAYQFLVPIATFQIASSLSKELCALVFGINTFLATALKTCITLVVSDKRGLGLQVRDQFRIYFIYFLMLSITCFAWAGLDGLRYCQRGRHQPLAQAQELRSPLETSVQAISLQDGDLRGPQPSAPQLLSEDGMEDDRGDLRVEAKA

[9] = Homo sapiens, A-431, read-out: Inhibition of cell growth, IC50, A431
[10] = read-out: Inhibition of cell growth, IC50, A431 + 1 μM FA, 20 nM LV, + 1 μM folic acid
[11] = Homo sapiens, KB, read-out: Inhibition of cell growth, IC50, KB, 20 nM LV
[12] = read-out: Inhibition of cell growth, IC50, KB + 1 μM FA, 20 nM LV, + 1 μM folic acid
[13] = Homo sapiens, read-out: Inhibition of cell growth, IC50, A431-FBP
[14] = read-out: Inhibition of cell growth, IC50, A431-FBP + 1 μM FA, 20 nM LV, + 1 μM folic acid

fold increased IC50 in presence of folic acid, A431 ([1]; 20 nM LV) | IC50 [1, 9] | IC50 [1, 10] | Ki [2] | fold increased IC50 in presence of folic acid, KB ([3]; 20 nM LV) | IC50 [3, 11] | IC50 [3, 12] | Inverse relative affinity for α-FR, L1210-FBP [4] | fold increased IC50 in presence of folic acid, A431-FBP ([5]; 20 nM LV) | IC50 [5, 13] | IC50 [5, 14] | Ki [6] | Inverse relative affinity for α-FR, A431-FBP [7] | Ki [8] | SMILES | fold increased sensitivity compared with A431, A431-FBP ([5]; 20 nM LV)
(1) fold | 1400 ± 260 nM | 1200 ± 510 nM | 0.46 nM and 0.77 nM | (73) fold | 8 ± 1 nM | 580 ± 30 nM | 0.73 ± 0.01 | (100) fold | 9.4 ± 4 nM | 930 ± 210 nM | 97000 nM and 315000 nM | 0.58 ± 0.017 | > 250000 nM | C#CCN(c1ccc(C(=O)N[C@@H](CCC(=O)N[C@H](CCC(=O)O)C(=O)O)C(=O)O)c(F)c1)C1CCc2cc3nc(C)[nH]c(=O)c3cc21 (mixture of isomers) [CB300947 (R, S), N-{N-{4-[N-((6RS)-2methyl-4-oxo-3,4,7,8-tetrahydro-6H-cyclopenta[g]-quinazolin-6-yl)-N-(prop-2-ynyl)amino]-2-fluorobenzoyl}-L-γ-glutamyl}-D-glutamic acid] | (150) fold
(1) fold | 810 ± 310 nM | 970 ± 580 nM | 0.33 ± 0.16 nM | (110) fold | 3.6 ± 1.5 nM | 390 ± 180 nM | 0.66 ± 0.08 | (160) fold | 3 ± 2.1 nM | 490 ± 170 nM | 115000 ± 12000 nM | 0.53 ± 0.07 | > 250000 nM | C#CCN(c1ccc(C(=O)N[C@@H](CCC(=O)N[C@H](CCC(=O)O)C(=O)O)C(=O)O)cc1)[C@H]1CCc2cc3nc(C)[nH]c(=O)c3cc21 [CB300638 (S)] | (270) fold
(1) fold | 1400 ± 820 nM | 1600 ± 1100 nM | 0.16 nM and 0.17 nM | (79) fold | 6.2 ± 3 nM | 490 ± 140 nM | 0.61 ± 0.07 | (170) fold | 2.6 ± 1.8 nM | 430 ± 180 nM | 142000 ± 54000 nM | 0.58 ± 0.032 | 186000 ± 121000 nM | C#CCN(c1ccc(C(=O)N[C@@H](CCC(=O)N[C@H](CCC(=O)O)c2nnn[nH]2)C(=O)O)cc1)[C@H]1CCc2cc3nc(C)[nH]c(=O)c3cc21 [CB300907 (S)] | (540) fold

Source: patent US7528141B2, “Use of cyclopenta[g]quinazoline derivatives for treating cancer” (BTG International Limited, priority 2001, dated 2009)
